Data: publication PMC8197120, “Synthesis and Characterization of Some New Quinoxalin-2(1H)one and 2-Methyl-3H-quinazolin-4-one Derivatives Targeting the Onset and Progression of CRC with SAR, Molecular Docking, and ADMET Analyses” (Molecules, 2021)
Converted amounts (≈) assume the structure as drawn. Where two headings read alike, the source gives them in different places.

Legend:
[1] = test system: Enterococcus faecalis (ATCC 29122); assay: Antibacterial activity, CFU viability; assay type: cell-based; settings: ATCC29122, mean of two determinations, read-out: Mean IC50 ± SD
Experimental: (§1) Pure standard microbial isolates collected from King Khaled University Hospital were tested in this study, including Enterococcus faecalis (ATCC 29122) as Gram positive bacteria and Escherichia coli (ATCC 25922) and Bacteroides fragilis (ATCC 25285) as Gram negative bacteria. Fresh cultures of each microorganism were grown on nutrient agar plates (Oxoid, UK), of which small inoculums were suspended in 5 mL nutrient broth for bacterial suspension preparation of 0.5MacFarland. Bacterial viability was investigated by estimating the colony-forming unit (CFU) ability of the bacteria incubated at different time intervals without or with appropriate amounts of the compound that were mixed with 2 × 10^7 CFU/mL in sterile BHI broths and were incubated under shaking for 60 min at 37 °C. Samples were serially diluted into sterile BHI broths, streaked onto media agar plates, and incubated for 24 h at 37 °C. The antibacterial potency of tested compounds was expressed as the residual number of CFU with reference to the initial inoculums. […] Ampicillin (1 mg/mL) was used as a positive standard reference.

[2] = test system: Bacteroides fragilis (ATCC 25285); assay: Antibacterial activity, CFU viability; assay type: cell-based; settings: ATCC25285, mean of two determinations, read-out: Mean IC50 ± SD
Experimental: as §1

[3] = test system: Escherichia coli (ATCC 25922); assay: Antibacterial activity, CFU viability; assay type: cell-based; settings: ATCC25922, mean of two determinations, read-out: Mean IC50 ± SD
Experimental: as §1

[4] = molecular target: purified recombinant human LDHA protein (Homo sapiens, UniProt P00338); assay: Lactate dehydrogenase-A (LDHA) inhibition assay, NADH consumption; assay type: biochemical; settings: LDHA; for inhibition at 100 µg/mL: read-out: Mean Inhibition % at 100 µg/ml ± SD; for inhibition at 200 µg/mL: read-out: Mean Inhibition % at 200 µg/ml ± SD
Experimental: LDHA inhibition activity was investigated by measuring the amounts of consumed NADH as described by Kim and his group. Briefly, different concentrations of each compound (50, 100, 200, and 300 µg) were incubated in buffer containing 20 mM of HEPES-K+ (pH 7.2), 20 μM of NADH, 2 mM of pyruvate, and 10 ng of purified recombinant human LDHA protein for 10 min. The fluorescence of NADH, which has an excitation wavelength of 340 nm and emission wavelength of 460 nm, was detected using a Spectrofluorometer.

COX-2 = molecular target: T1, COX-2 (Homo sapiens, UniProt P35354); assay: Cyclooxygenase (COX-2) inhibition assay (Cayman kit 701080); assay type: biochemical; settings: for inhibition at 100 µg/mL: read-out: Mean Inhibition % at 100 µg/ml ± SD; for inhibition at 200 µg/mL: read-out: Mean Inhibition % at 200 µg/ml ± SD
T1 construct: purchased Cayman Chemical Company 701080
T1 sequence (P35354 18-604): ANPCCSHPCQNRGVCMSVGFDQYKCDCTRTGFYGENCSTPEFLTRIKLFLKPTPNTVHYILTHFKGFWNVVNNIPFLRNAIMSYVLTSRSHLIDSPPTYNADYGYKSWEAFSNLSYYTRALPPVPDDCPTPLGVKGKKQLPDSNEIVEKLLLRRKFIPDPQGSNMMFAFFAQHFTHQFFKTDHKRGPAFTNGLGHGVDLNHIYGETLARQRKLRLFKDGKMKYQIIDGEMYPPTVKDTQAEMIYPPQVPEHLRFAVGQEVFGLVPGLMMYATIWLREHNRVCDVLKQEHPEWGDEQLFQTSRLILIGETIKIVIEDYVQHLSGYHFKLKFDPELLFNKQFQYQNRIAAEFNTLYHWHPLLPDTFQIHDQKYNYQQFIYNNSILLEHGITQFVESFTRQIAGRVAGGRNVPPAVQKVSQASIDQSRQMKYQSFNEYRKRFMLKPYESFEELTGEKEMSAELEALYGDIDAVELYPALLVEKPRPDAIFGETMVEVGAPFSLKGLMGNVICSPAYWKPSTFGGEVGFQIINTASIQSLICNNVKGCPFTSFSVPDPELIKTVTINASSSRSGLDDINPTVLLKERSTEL
Experimental: The compounds were resuspended in 100% DMSO at a final concentration of 10 mg/mL. […] The inhibitory activity was expressed as the inhibition percentage, which was determined by comparison with a control experiment. IC50 values were deduced from the curves.

[5] = In vitro cytotoxicity assay (LDH release); assay type: cell-based, human; settings: human, 200 µg/ml, 24 h
Experimental: (§2) The best-in-class compounds, including (4c), (4d), (6a), (6b), (6d), (6e), and (6g), which were recognized as antimicrobial and enzymatic inhibitors, were further examined for their cytotoxic effects on LoVo and HCT-116 cells of human colon cancer. This was carried out by determining the residual percentages of viable cells after being treated with the compounds at different concentrations (50, 100, 200, and 400 µg/mL), using triton X-100 (at concentration of 0.1%) in the assay medium and the assay as the positive and negative controls, respectively.
(§3) Samples were diluted in Dulbecco’s modified Eagles medium, consisting of 10% fetal bovine serum, added to cells grown and cultured for 24 h in a 5% CO2-humidified incubator at 37 °C. Then, the activity of lactate dehydrogenase released from damaged cells was determined in the collected supernatant aliquots using an ELISA end-point assay (Benchmark Plus, Bio-Rad, CA, USA). The 0.1% Triton X-100 in the assay medium and the assay medium only were used as positive and negative controls, respectively. Cell viability, expressed as a relative percentage of the OD values (at 550 nm) for compound-treated cells (final concentration of 200 µg) and the control, is shown as mean ± SD (n = 2).

HCT-116 cells = assay: In vitro cytotoxicity assay (LDH release); assay type: cell-based, human
Experimental: as §2, §3

LoVo cells = assay: In vitro cytotoxicity assay (LDH release); assay type: cell-based, human
Experimental: as §2, §3

[6] = HCT-116 colon cancer cells, read-out: Mean % Cell Viability ± SD CRC-HCT-116 cells
[7] = LoVo colon cancer cells, read-out: Mean % Cell Viability ± SD CRC-LoVo cells

Molecule	IC50 [1] [µg/mL]	IC50 [2] [µg/mL]	IC50 [3] [µg/mL]	inhibition at 100 µg/mL [4] [%]	inhibition at 200 µg/mL [4] [%]	IC50 (COX-2) [µM]	inhibition at 100 µg/mL (COX-2) [%]	inhibition at 200 µg/mL (COX-2) [%]	viability at 24 h, 200 µg/mL [5, 6] [%]	viability at 24 h, 200 µg/mL [5, 7] [%]	IC50 [4] [µM]	Mean % Cell Viability, positive control (HCT-116 cells) [%]	Mean % Cell Viability, positive control (LoVo cells) [%]
COc1cc(C=Nn2c(C)nc3ccc(Cl)cc3c2=O)ccc1OCc1ccccc1 [Compound 6e, 3-[(4-Benzyloxy-3-methoxy-benzylidene)-amino]-6-chloro-2-methyl-3H-quinazolin-4-one]	12.4 (≈ 28.6 µM)	12.8 ± 0.919 (≈ 29.4 µM)	15.7 ± 0.919 (≈ 36.1 µM)	44.8 ± 2.9	76.8	222	57.9	100	89 ± 2.83	93.4 ± 4.81	–	–	–
CCc1ccc(C=Nn2c(C)nc3ccc(F)cc3c2=O)s1 [Compound 6g, 3-[(5-Ethyl-thiophen-2-ylmethylene)-amino]-6-fluoro-2-methyl-3H-quinazolin-4-one]	17.2 ± 1.77 (≈ 54.7 µM)	19.9 ± 2.26 (≈ 63.1 µM)	24.8 ± 1.77 (≈ 78.5 µM)	53.6	89.8	–	28.8 ± 2.47	48.6 ± 3.75	86.5 ± 2.12	88.2 ± 2.62	334	–	–
Triton X-100 [reference compound]	–	–	–	–	–	–	–	–	–	–	–	0.00	0.00
